In publication PMC8795539 (Proceedings of the National Academy of Sciences of the …, 2022):

Tests used:
[1] = biological target: T1, SmoB (Atu3278), 6-OG reductase (Agrobacterium fabrum, UniProt A9CEY6); test: ITC; type: binding
T1 sequence (A9CEY6 1-297): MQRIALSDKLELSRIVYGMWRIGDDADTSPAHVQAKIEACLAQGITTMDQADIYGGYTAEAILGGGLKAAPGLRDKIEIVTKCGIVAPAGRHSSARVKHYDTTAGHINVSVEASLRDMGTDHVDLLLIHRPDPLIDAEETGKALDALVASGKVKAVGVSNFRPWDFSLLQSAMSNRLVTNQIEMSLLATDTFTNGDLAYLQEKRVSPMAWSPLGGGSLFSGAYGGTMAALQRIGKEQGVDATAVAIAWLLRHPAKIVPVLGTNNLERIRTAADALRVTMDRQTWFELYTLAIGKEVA

[2] = biological target: T2, SmoA (Atu3277), flavin mononucleotide reductase (Agrobacterium fabrum, UniProt Q7CS24); test: copurification, LC-MS of heat-released flavin; type: binding
T2 sequence (Q7CS24 1-174): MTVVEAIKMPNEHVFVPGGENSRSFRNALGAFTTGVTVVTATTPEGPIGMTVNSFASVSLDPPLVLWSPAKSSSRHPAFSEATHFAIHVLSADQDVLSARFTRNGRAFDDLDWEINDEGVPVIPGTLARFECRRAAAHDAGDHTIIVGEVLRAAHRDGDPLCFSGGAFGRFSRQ

purified protein = substrate: NC(=O)C1=CN([C@@H]2O[C@H](COP(=O)(O)OP(=O)(O)OC[C@H]3O[C@@H](n4cnc5c(N)ncnc54)[C@H](O)[C@@H]3O)[C@@H](O)[C@H]2O)C=CC1; test: purified protein; conditions: FMN
SEC-MALS = biological target: the molecule itself; test: SEC-MALS

Question: How did the Kd [1] turn out when `NC(=O)C1=CN([C@@H]2O[C@H](COP(=O)(O)OP(=O)(O)OC[C@H]3O[C@@H](n4cnc5c(N)ncnc54)[C@H](OP(=O)(O)O)[C@@H]3O)[C@@H](O)[C@H]2O)C=CC1` [NADPH] was run?
Answer: The Kd was roughly 2000 nM.

Question: Which “copurification, LC-MS of heat-released flavin” value [2] does the source give for `Cc1cc2nc3c(=O)[nH]c(=O)nc-3n(C[C@H](O)[C@H](O)[C@H](O)COP(=O)(O)O)c2cc1C` [FMN] here?
Answer: Its value is “to reveal that flavin mononucleotide (FMN) was the sole detectable flavin”.

B1: SmoA (Atu3277), flavin mononucleotide reductase (Agrobacterium fabrum str. C58) (protein)
chain: MTVVEAIKMPNEHVFVPGGENSRSFRNALGAFTTGVTVVTATTPEGPIGMTVNSFASVSLDPPLVLWSPAKSSSRHPAFSEATHFAIHVLSADQDVLSARFTRNGRAFDDLDWEINDEGVPVIPGTLARFECRRAAAHDAGDHTIIVGEVLRAAHRDGDPLCFSGGAFGRFSRQ
Question: Which Km (purified protein) does the source give for B1 here?
Answer: Its Km is 35 ± 5 µM.

B2: SmoC (Atu3279), SQ monooxygenase from Agrobacterium tumefaciens C58 (enzyme)
chain: MTVVPVTSADLDAAEVSWFSALCSDDYAYLGVPDGSLRSSFEHCSDIVKKAEELGFRNILCPSSYQVGQDTLSFVAGCAPISDRINFLAAIRCGEMQPIMLARTVATLDHMLKGRLTLNVISSDFPGEVADSAFRYKRSHEVVEILRQAWTRDTIDHDGEIYQFKGVSTEPARPYQLNGGPLLYFGGYSPDALELCGAQCDVYLMWPETKDQLADRMRAAHERAAAHGRTLDYGLRVHMVVRDTEQEAREYADHLVSKLDDEYGQLIRNRAHDSGSLGVSHQARARELADKFGYVEPNLWTGIGRARSGCGAALVGSTDQVLSALEEYQKMGIRAFILSGYPHLDEAEHFGTKVLPQMKTCSLPHAYGRVPSETPATPLGNGERH
Question: How did the “stoichiometry N” value (SEC-MALS) turn out when B2 was run?
Answer: Its value is 2.
